# Legend:
# [1] = system: barnyardgrass; assay: Test B pre-/postemergence herbicide test; assay type: in vivo, Echinochloa crus-galli; settings: for Barnyardgrass plant response rating: postemergence, visual rating, scale 0 (no effect) to 100 (complete control)
# How it was run: (§1)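 Evaluation is visual, comparing treated with control plants on a scale where 0 means no effect and 100 means full control. Treatments were preemergence, or postemergence on seedlings 2–18 cm tall, and held 13–15 days in the greenhouse.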
# [2] = system: Surinam grass; assay: Test B pre-/postemergence herbicide test; assay type: in vivo, Urochloa decumbens; settings: for Surinam Grass plant response rating: postemergence, visual rating, scale 0 (no effect) to 100 (complete control)
# How it was run: (§2)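 Test chemicals in a non-phytotoxic solvent mixture with surfactant were applied preemergence to seeded species and postemergence to plants 2-18 cm tall (1- to 4-leaf stage); rice and barnyardgrass were also tested in a flooded paddy at the 2-leaf stage. Visual rating versus controls after 13-15 days in greenhouse, scale 0 (no effect) to 100 (complete control).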
# [3] = system: cocklebur; assay: Test B pre-/postemergence herbicide test; assay type: in vivo, Xanthium strumarium; settings: for Cocklebur plant response rating: postemergence, visual rating, scale 0 (no effect) to 100 (complete control)
# How it was run: as §1
# [4] = system: corn; assay: Test B pre-/postemergence herbicide test; assay type: in vivo, Zea mays; settings: for Corn plant response rating: postemergence, visual rating, scale 0 (no effect) to 100 (complete control)
# How it was run: as §2
# [5] = system: large crabgrass; assay: Test B pre-/postemergence herbicide test; assay type: in vivo, Digitaria sanguinalis; settings: for Crabgrass, Large plant response rating: postemergence, visual rating, scale 0 (no effect) to 100 (complete control)
# How it was run: as §2
# [6] = system: giant foxtail; assay: Test B pre-/postemergence herbicide test; assay type: in vivo, Setaria faberi; settings: for Foxtail, Giant plant response rating: postemergence, visual rating, scale 0 (no effect) to 100 (complete control)
# How it was run: as §2
# [7] = system: lambsquarters; assay: Test B pre-/postemergence herbicide test; assay type: in vivo, Chenopodium album
# How it was run: as §2
# [8] = system: morningglory; assay: Test B pre-/postemergence herbicide test; assay type: in vivo, Ipomoea coccinea; settings: for Morningglory plant response rating: postemergence, visual rating, scale 0 (no effect) to 100 (complete control)
# How it was run: as §1
# [9] = system: pigweed; assay: Test B pre-/postemergence herbicide test; assay type: in vivo, Amaranthus retroflexus; settings: for Pigweed plant response rating: postemergence, visual rating, scale 0 (no effect) to 100 (complete control)
# How it was run: as §2
# [10] = system: rice; assay: Test B pre-/postemergence herbicide test; assay type: in vivo, Oryza sativa; settings: preemergence
# How it was run: as §2
# [11] = system: velvetleaf; assay: Test B pre-/postemergence herbicide test; assay type: in vivo, Abutilon theophrasti; settings: for Velvetleaf plant response rating: postemergence, visual rating, scale 0 (no effect) to 100 (complete control)
# How it was run: as §2
# [12] = system: blackgrass; assay: Test B postemergence herbicide test; assay type: in vivo, Alopecurus myosuroides; settings: postemergence, visual rating, scale 0 (no effect) to 100 (complete control)
# How it was run: (§3)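 Each value is a visual 0–100 response rating taken against controls 13 to 15 days after treatment in the greenhouse. Plants received formulated chemical postemergence at the 1- to 4-leaf stage or, in flooded paddy, at the 2-leaf stage.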
# [13] = system: wheat; assay: Test B postemergence herbicide test; assay type: in vivo, Triticum aestivum; parameters: key to Wheat plant response rating: 0 = no effect, 100 = complete control; settings: postemergence, visual rating, scale 0 (no effect) to 100 (complete control)
# How it was run: (§4)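 Postemergence plants were sprayed with formulated test chemicals at 2 to 18 cm height (1- to 4-leaf stage); paddy species were grown to the 2-leaf stage. After 13 to 15 days in a greenhouse, injury was rated visually against untreated controls on a 0–100 scale (0 = no effect, 100 = complete control).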
# [14] = system: wild oat; assay: Test B postemergence herbicide test; assay type: in vivo, Avena fatua; settings: postemergence, visual rating, scale 0 (no effect) to 100 (complete control)
# How it was run: as §4
# [15] = system: rice; assay: Test B flooded paddy test; assay type: in vivo, Oryza sativa; settings: 1000 g ai/ha, visual rating, scale 0 to 100 (0 no effect, 100 complete control), 13 to 15 days
# How it was run: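 Paddy species grown to the 2-leaf stage under flooding; blackgrass sprayed postemergence at 2–18 cm (1- to 4-leaf stage). Plants kept in a greenhouse for 13 to 15 days, then visually rated against controls on 0 (no effect) to 100 (complete control).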
# [16] = system: small flower umbrella sedge; assay: Test B flooded paddy test; assay type: in vivo, Cyperus difformis; settings: 1000 g ai/ha, visual rating, scale 0 to 100 (0 no effect, 100 complete control), 13 to 15 days
# How it was run: as §3
# [17] = system: ducksalad; assay: Test B flooded paddy test; assay type: in vivo, Heteranthera limosa; settings: 1000 g ai/ha, visual rating, scale 0 to 100 (0 no effect, 100 complete control), 13 to 15 days
# How it was run: as §3
# [18] = system: barnyardgrass; assay: Test B flooded paddy test; assay type: in vivo, Echinochloa crus-galli; settings: 1000 g ai/ha, visual rating, scale 0 to 100 (0 no effect, 100 complete control), 13 to 15 days
# How it was run: as §3
# [19] = system: rice; assay: Test C flooded paddy test; assay type: in vivo, Oryza sativa
# How it was run: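 Plants were grown to the 1- to 4-leaf stage (2–18 cm) and then treated postemergence, or grown to the 2-leaf stage for the flooded paddy test. They were held in a greenhouse for 12 to 14 days and then scored by eye against controls, where 0 is no effect and 100 is complete control.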
# [20] = system: smallflower umbrella sedge; assay: Test C flooded paddy test; assay type: in vivo, Cyperus difformis
# [21] = system: ducksalad; assay: Test C flooded paddy test; assay type: in vivo, Heteranthera limosa
# [22] = system: barnyardgrass; assay: Test C flooded paddy test; assay type: in vivo, Echinochloa crus-galli
# How it was run: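 Postemergence sprays applied to plants 2 to 18 cm tall (1- to 4-leaf stage); paddy species grown to 2-leaf stage under flooding. After 12 to 14 days in greenhouse, visual rating versus untreated controls on 0–100 scale (0 no effect, 100 complete control).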
# [23] = 125 g ai/ha, 0 = no effect, 100 = complete control, preemergence
# [24] = 500 g ai/ha, visual rating 0-100, 0 no effect, 100 complete control, preemergence
# [25] = 62 g ai/ha, scale 0 to 100 (0 no effect, 100 complete control)
# [26] = 125 g ai/ha, scale 0 to 100 (0 no effect, 100 complete control)
# [27] = 250 g ai/ha, scale of 0 to 100, 0 is no effect, 100 is complete control
# [28] = 500 g ai/ha, visual rating after 12 to 14 days, scale 0 to 100 (0 no effect, 100 complete control)
compound,measurement,setting,value
CCc1nn(C(C)(C)C)cc1C(=O)Nc1cc(C(=O)NC)ccc1F [Compound 194],Barnyardgrass plant response rating (0 to 100 scale),[1]; [23],0
same,"Plant response rating, Barnyardgrass",[1]; [24],90
same,Barnyardgrass plant response rating,[1]; 125 g ai/ha,0
same,Barnyardgrass plant response rating,[1]; 500 g ai/ha,10
same,Surinam Grass plant response rating (0 to 100 scale),[2]; [23],0
same,"Plant response rating, Surinam Grass",[2]; [24],60
same,Surinam Grass plant response rating,[2]; 125 g ai/ha,10
same,Surinam Grass plant response rating,[2]; 500 g ai/ha,10
same,Cocklebur plant response rating (0 to 100 scale),[3]; [23],0
same,"Plant response rating, Cocklebur",[3]; [24],20
same,Cocklebur plant response rating,[3]; 125 g ai/ha,10
same,Cocklebur plant response rating,[3]; 500 g ai/ha,10
same,Corn plant response rating (0 to 100 scale),[4]; [23],0
same,"Plant response rating, Corn",[4]; [24],50
same,Corn plant response rating,[4]; 125 g ai/ha,0
same,Corn plant response rating,[4]; 500 g ai/ha,0
same,"Crabgrass, Large plant response rating (0 to 100 scale)",[5]; [23],100
same,"Plant response rating, Crabgrass, Large",[5]; [24],100
same,"Crabgrass, Large plant response rating",[5]; 125 g ai/ha,10
same,"Crabgrass, Large plant response rating",[5]; 500 g ai/ha,10
same,"Foxtail, Giant plant response rating (0 to 100 scale)",[6]; [23],10
same,"Plant response rating, Foxtail, Giant",[6]; [24],80
same,"Foxtail, Giant plant response rating",[6]; 125 g ai/ha,0
same,"Foxtail, Giant plant response rating",[6]; 500 g ai/ha,0
same,Lambsquarters plant response rating (0 to 100 scale),[7]; [23],30
same,Lambsquarters plant response rating,"[7]; postemergence, 500 g ai/ha, visual rating, scale 0 (no effect) to 100 (complete control)",30
same,Morningglory plant response rating (0 to 100 scale),[8]; [23],20
same,"Plant response rating, Morningglory",[8]; [24],50
same,Morningglory plant response rating,[8]; 125 g ai/ha,10
same,Morningglory plant response rating,[8]; 500 g ai/ha,10
same,Pigweed plant response rating (0 to 100 scale),[9]; [23],0
same,"Plant response rating, Pigweed",[9]; [24],100
same,Pigweed plant response rating,[9]; 125 g ai/ha,20
same,Pigweed plant response rating,[9]; 500 g ai/ha,30
same,Rice plant response rating (0 to 100 scale),"[10]; 125 g ai/ha, 0 = no effect, 100 = complete control",0
same,"Plant response rating, Rice","[10]; 500 g ai/ha, visual rating 0-100, 0 no effect, 100 complete control",70
same,Velvetleaf plant response rating (0 to 100 scale),[11]; [23],20
same,"Plant response rating, Velvetleaf",[11]; [24],60
same,Velvetleaf plant response rating,[11]; 125 g ai/ha,10
same,Velvetleaf plant response rating,[11]; 500 g ai/ha,10
same,Blackgrass plant response rating,[12]; 125 g ai/ha,0
same,Blackgrass plant response rating,[12]; 500 g ai/ha,0
same,Wheat plant response rating,[13]; 125 g ai/ha,0
same,Wheat plant response rating,[13]; 500 g ai/ha,0
same,"Oat, Wild plant response rating",[14]; 125 g ai/ha,0
same,"Oat, Wild plant response rating",[14]; 500 g ai/ha,0
same,Rice plant response rating,[15],60
same,"Sedge, Umbrella plant response rating",[16],80
same,Ducksalad plant response rating,[17],90
same,Barnyardgrass plant response rating,[18],50
same,Rice plant response rating,[19]; [25],0
same,Rice plant response rating,[19]; [26],25
same,Rice plant response rating,[19]; [27],25
same,"Plant response rating, Rice",[19]; [28],45
same,"Sedge, Umbrella plant response rating",[20]; [25],0
same,"Sedge, Umbrella plant response rating",[20]; [26],0
same,"Sedge, Umbrella plant response rating",[20]; [27],35
same,"Plant response rating, Sedge, Umbrella",[20]; [28],75
same,Ducksalad plant response rating,[21]; [25],0
same,Ducksalad plant response rating,[21]; [26],0
same,Ducksalad plant response rating,[21]; [27],0
same,"Plant response rating, Ducksalad",[21]; [28],40
same,Barnyardgrass plant response rating,[22]; [25],0
same,Barnyardgrass plant response rating,[22]; [26],0
same,Barnyardgrass plant response rating,[22]; [27],0
same,"Plant response rating, Barnyardgrass",[22]; [28],25
